Experimental data taken from patent US20220401592A1, “LOW MOLECULAR WEIGHT AND POLYAMIDOAMINE (PAMAM) DENDRIMER BASED PSMA-SPECIFIC DUAL CONTRAST AGENTS FOR OPTICAL AND PHOTOACOUSTIC IMAGING AND THERANOSTIC AGENTS FOR TREATING PROSTATE CANCER” (priority 2021, published 2022).

Tests used:
PSMA [1] = biological target: T1, PSMA (Homo sapiens, UniProt Q04609); test: In vitro binding assay of conjugates with PSMA+ PC3 PIP cells (vs PSMA- PC3 flu cells); parameters: expressed in transfected cells; host or cells: PSMA+ PC3 PIP (human prostate cancer PC3 subline); PSMA- PC3 flu as negative control; details: for Kd: PSMA+ PC3 PIP cells, fluorescence intensity vs concentration, read-out: Kd, dissociation constant
Target sequence in this assay (Q04609 whole entry): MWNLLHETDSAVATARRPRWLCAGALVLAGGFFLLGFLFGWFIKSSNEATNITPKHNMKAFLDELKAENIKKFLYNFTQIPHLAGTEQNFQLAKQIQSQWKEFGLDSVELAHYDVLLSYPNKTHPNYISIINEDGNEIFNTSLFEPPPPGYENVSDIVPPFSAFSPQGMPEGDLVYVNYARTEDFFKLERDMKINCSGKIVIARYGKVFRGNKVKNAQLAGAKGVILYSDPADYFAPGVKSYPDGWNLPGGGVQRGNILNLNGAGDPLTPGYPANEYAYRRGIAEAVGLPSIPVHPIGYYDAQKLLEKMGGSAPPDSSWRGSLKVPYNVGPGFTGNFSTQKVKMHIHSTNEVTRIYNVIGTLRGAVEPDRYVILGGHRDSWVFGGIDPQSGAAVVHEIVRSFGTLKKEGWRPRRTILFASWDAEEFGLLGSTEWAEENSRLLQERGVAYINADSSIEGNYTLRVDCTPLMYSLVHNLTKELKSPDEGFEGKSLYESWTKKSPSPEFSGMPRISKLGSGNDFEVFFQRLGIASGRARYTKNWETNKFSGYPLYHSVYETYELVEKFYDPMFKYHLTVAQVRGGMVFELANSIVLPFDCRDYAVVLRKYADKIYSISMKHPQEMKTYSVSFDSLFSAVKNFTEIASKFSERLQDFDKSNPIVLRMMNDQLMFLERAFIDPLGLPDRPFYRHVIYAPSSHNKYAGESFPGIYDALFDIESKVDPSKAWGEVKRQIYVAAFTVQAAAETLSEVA

[2] = Spectrofluorometric test (fluorescence quenching) of conjugates; details: excitation 715 nm, emission 750-850 nm; samples with the same amount of Cy7.5 dye; normalized to conjugate I
Experimental: (§1) All conjugates were formulated into 600 μL sample containing 2.88-nmol Cy7.5 dye. Then, each sample was equally split into three for spectrophotometric, spectrofluorometric, and PA tests, respectively. To obtain the excitation wavelength for fluorescence evaluation as well as estimating the shape of PA spectra, optical absorbance of all conjugates was first tested on a UIV-Vis spectrophotometer. A range from 650 nm to 950 nm (slightly wider than the tunable stable wavelength range on a Nd:YAG OPO laser, i.e., 700 nm to 900 nm) in step of 1 nm was selected. […] Due to the emission limit on the spectrofluorometer (up to 850 nm), the excitation for spectrofluorometry was set at 715 nm, and the emission was set from 750 nm to 850 nm in step of 1 nm. […] Specifically, to avoid the interference of photobleaching wavelengths from 700 nm to 900 nm in step of 10 nm were tested in PA tubing phantom experiment.

[3] = PA tubing phantom experiment; details: for RPAmax, ratio of maximum PA intensity in NIR range (with respect to I at 770 nm): 700-900 nm in steps of 10 nm; for RPAmax, ratio of maximum PA intensity in NIR range (with respect to I at 770 nm) / RPA780, ratio of photoacoustic intensity at 780 nm (to conjugate I): same amount of Cy7.5 dye; for PB: abbreviation not defined in the footnote
Experimental: as §1

PSMA-PC3 flu tumors = test: In vivo photoacoustic imaging, PSMA-PC3 flu tumors; parameters: species or system NOD-SCID mice
Text: To evaluate potential application of the conjugates in photoacoustic imaging, mice used in optical imaging (described in optical imaging section) were imaged using the Nd:YAG OPO laser and Verasonics Vantage 256 ultrasound research platform. […] Under the assumption that different tissue types yield linearly independent PA signal, the two-dimensional (axial and lateral) PA images of the exogeneous imaging agent (conjugate VI) were decomposed from the acquired three-dimensional photoacoustic volume (axial, lateral, and spectral) using non-negative least squares models. The same speed of sound was considered in the beam formation of US and PA imaging. Thus, the two imaging modalities were co-registered by nature. On top of that, image fusion of the two was achieved by using Daubechies 2 wavelet in wavelet transform.
To record background for PA signal mice were imaged before administration of […] and 5, 24, 48, and 72 h after injection (ai). The average PA intensities within the region-of-interest (ROI) of PSMA^+ PC3 normalized with respect to the pre-administration baseline PIP were 25.1±11.0, 30.2±21.1, and 21.8±7.4 at 24, 48 and 72 h ai, respectively. The average PA image intensities within the ROI of PSMA-PC3 flu were 4.2±4.3, 5.9±2.5, 3.8±1.3 (a.u.) at the same time points. […] The normalized PA image intensities of PSMA^+ PC3 PIP tumors were 1.1±0.9, 3.8±4.1, and 1.6±1.4 (a.u.) at 24, 48 and 72 h ai, respectively, and of PSMA-PC3 flu tumors were 2.0±0.9, 3.4±2.4, and 0.9±0.7 (a.u.), respectively.

[4] = tested on: PSMA+ PC3 PIP and PSMA-PC3 flu xenografts; test: NIR optical imaging, in vivo and ex vivo, of tumor-bearing mice; parameters: species or system NOD-SCID mice; details: for preferential accumulation in PSMA+ PC3 PIP tumors vs PSMA-PC3 flu tumors (optical imaging): whole-body NIR imaging, 800 nm channel
PSMA+ PC3 PIP tumors = test: In vivo photoacoustic imaging, PSMA+ PC3 PIP tumors; parameters: species or system NOD-SCID mice
[5] = Spectrophotometric test (UV-Vis optical absorbance) of conjugates
Experimental: as §1

PSMA [6] = biological target: T1, PSMA; details: cited from earlier work
Target sequence in this assay (Q04609 whole entry, species assumed): as the sequence (Q04609 whole entry) above

| Compound | Kd (PSMA [1]) | QR (quenching rate) [2] | RPAmax, ratio of maximum PA intensity in NIR range (with respect to I at 770 nm) [3] | RPA780, ratio of photoacoustic intensity at 780 nm (to conjugate I) [3] | PB [3] | average PA image intensity within ROI of PSMA-PC3 flu (PSMA-PC3 flu tumors; 24 h after injection) | average PA image intensity within ROI of PSMA-PC3 flu (PSMA-PC3 flu tumors; 48 h after injection) | average PA image intensity within ROI of PSMA-PC3 flu (PSMA-PC3 flu tumors; 72 h after injection) | preferential accumulation in PSMA+ PC3 PIP tumors vs PSMA-PC3 flu tumors (optical imaging) [4] | average PA intensity within ROI of PSMA+ PC3 PIP, normalized to pre-injection baseline (PSMA+ PC3 PIP tumors; 24 h after injection) | average PA intensity within ROI of PSMA+ PC3 PIP, normalized to pre-injection baseline (PSMA+ PC3 PIP tumors; 48 h after injection) | average PA intensity within ROI of PSMA+ PC3 PIP, normalized to pre-injection baseline (PSMA+ PC3 PIP tumors; 72 h after injection) | absorbance relative to I below 750 nm [5] | ratio of PA intensity to I in 790-900 nm range ([3]; maximum ratio, at 860 nm) | uptake by PSMA+ PC3 PIP cells compared to PSMA-PC3 flu cells (PSMA [1]) | specific uptake by PSMA+ PC3 PIP in presence of an excess of ZJ-43 (PSMA [1]; excess of ZJ-43 (PSMA antagonist)) | internalization in PSMA+ PC3 PIP cells compared to PSMA-PC3 flu cells (PSMA [1]; microscopic evaluation) | ex vivo fluorescence intensity PSMA+ PC3 PIP/PSMA-PC3 flu ratio ([4]; dissected tissues 72 h after injection of 100 μg (3.72 nmol)) | affinity to PSMA (PSMA [6]) |
| --- | --- | --- | --- | --- | --- | --- | --- | --- | --- | --- | --- | --- | --- | --- | --- | --- | --- | --- | --- |
| G4(NH2)(Cy7.5)4(SA-KEU)9(Bdiol)30 [Conjugate III] | 0.27 µM | 174.9% | 20.6% | 20.9% | 0.049 %/sec | – | – | – | – | – | – | – | – | – | – | – | – | – | – |
| CN1/C(=C/C=C2C=C(/C=C/C3=[N+](CCCCCC(=O)NCCCC[C@H](NC(=O)CCCCCCC(=O)NCCCC[C@H](NC(=O)N[C@@H](CCC(=O)O)C(=O)O)C(=O)O)C(=O)O)c4ccc5c(S(=O)(=O)O)cc(S(=O)(=O)O)cc5c4C3(C)C)CCC/2)C(C)(C)c2c1ccc1c(S(=O)(=O)[O-])cc(S(=O)(=O)O)cc21 [Conjugate I] | 0.78 µM | – | – | – | – | 1.9±1.4 a.u. | 19±0.9 a.u. | 2.0±1.1 a.u. | preferential accumulation | 21.6±16.8 a.u. | 12.7±5.2 a.u. | 10.0±4.8 a.u. | – | – | – | – | – | – | – |
| G4(NH2)13(Cy7.5)6(Bdiol)45 [Conjugate VI] | – | 26.6% | 44.6% | 45.4% | – | 2.0±0.9 a.u. | 3.4±2.4 a.u. | 0.9±0.7 a.u. | did not show preferential uptake | 1.1±0.9 a.u. | 3.8±4.1 a.u. | 1.6±1.4 a.u. | – | – | – | – | – | – | – |
| G4(Cy7.5)s(SA-KEU)12(Bdiol)52 [Conjugate V] | 0.078 µM | 1.3% | 111.1% | 97.5% | 0.057 %/sec | – | – | – | – | – | – | – | up to 1.8 times | ≤ 1257.44% | – | – | – | – | – |
| G4(Cy7.5)6(SA-KEU)9(Bdiol)53 [Conjugate IV] | 0.41 µM | 4.4% | 48.1% | 49.0% | 0.037 %/sec | 4.2±4.3 a.u. | 5.9±2.5 a.u. | 3.8±1.3 a.u. | highly specific accumulation | 25.1±11.0 a.u. | 30.2±21.1 a.u. | 21.8±7.4 a.u. | – | – | significantly higher uptake | inhibited | significantly higher internalization | 6.2 | – |
| G4(NH2)20(Cy7.5)2(SA-KEU)10(Bdiol)32 [Conjugate II] | 0.68 µM | 76.4% | 30.3% | 30.8% | 0.043 %/sec | – | – | – | – | – | – | – | – | – | – | – | – | – | – |
| NCCCCC(NC(=O)NC(CCC(=O)O)C(=O)O)C(=O)O (stereo not drawn) [KEU, Lys-Glu-urea] | – | – | – | – | – | – | – | – | – | – | – | – | – | – | – | – | – | – | picomolar |
